{"source": "paper PMC6934184", "about": "“Selective DNA-PKcs inhibition extends the therapeutic index of localized radiotherapy and chemotherapy” (The Journal of Clinical Investigation, 2019)", "biological_target": "T1, HIPK3 (YAK1) (Homo sapiens, UniProt Q9H422)", "T1 construct": "purchased Thermo Fisher Scientific (Life Technologies) SelectScreen", "T1 sequence (Q9H422 whole entry)": "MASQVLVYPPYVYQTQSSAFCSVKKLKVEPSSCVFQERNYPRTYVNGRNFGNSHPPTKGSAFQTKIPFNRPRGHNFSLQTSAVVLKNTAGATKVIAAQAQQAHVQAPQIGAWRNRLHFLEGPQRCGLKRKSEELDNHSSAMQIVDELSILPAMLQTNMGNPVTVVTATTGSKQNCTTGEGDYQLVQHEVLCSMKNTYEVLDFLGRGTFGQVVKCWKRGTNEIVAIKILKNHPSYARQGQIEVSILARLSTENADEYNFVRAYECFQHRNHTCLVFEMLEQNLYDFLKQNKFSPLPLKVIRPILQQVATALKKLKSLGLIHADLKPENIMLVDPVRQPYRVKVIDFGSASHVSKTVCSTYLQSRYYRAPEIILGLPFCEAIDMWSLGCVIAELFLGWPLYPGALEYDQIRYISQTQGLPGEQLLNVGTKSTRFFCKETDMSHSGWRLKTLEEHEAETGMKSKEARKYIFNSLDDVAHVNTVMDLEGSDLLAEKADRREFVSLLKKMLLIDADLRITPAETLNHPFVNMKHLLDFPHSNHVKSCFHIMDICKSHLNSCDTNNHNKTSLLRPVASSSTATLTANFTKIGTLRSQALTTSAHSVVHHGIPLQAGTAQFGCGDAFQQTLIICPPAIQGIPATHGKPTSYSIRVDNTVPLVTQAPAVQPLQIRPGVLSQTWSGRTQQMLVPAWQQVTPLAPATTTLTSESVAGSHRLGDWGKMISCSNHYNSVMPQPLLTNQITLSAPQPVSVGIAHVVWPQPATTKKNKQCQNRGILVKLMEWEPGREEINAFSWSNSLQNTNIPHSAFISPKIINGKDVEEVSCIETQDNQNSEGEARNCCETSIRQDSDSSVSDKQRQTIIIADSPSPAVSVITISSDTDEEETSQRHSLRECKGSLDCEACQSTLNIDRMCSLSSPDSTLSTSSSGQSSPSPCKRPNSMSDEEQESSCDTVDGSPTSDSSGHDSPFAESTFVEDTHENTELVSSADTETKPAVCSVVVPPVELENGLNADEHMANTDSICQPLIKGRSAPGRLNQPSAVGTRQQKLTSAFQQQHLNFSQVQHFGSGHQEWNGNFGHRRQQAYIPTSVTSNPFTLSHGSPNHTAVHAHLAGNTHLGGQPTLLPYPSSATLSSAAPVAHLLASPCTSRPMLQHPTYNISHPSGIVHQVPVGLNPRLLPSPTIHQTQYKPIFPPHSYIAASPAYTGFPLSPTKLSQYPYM", "test": "SelectScreen Z'LYTE", "type": "biochemical", "summary_of_the_method": "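Percent values come from Thermo SelectScreen profiling of NU5455, combining activity and binding assays. CSF1R was run in Z'LYTE format at Km app ATP, and CAMK1 in Adapta format with ATP listed at 10.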", "data": [{"smiles": "CN(C(=O)CN1CCOCC1)c1ccc2sc3c(-c4cccc5c(=O)cc(N6CC7CCC(C6)O7)oc45)cccc3c2c1", "note": "[NU5455]", "values": [{"measurement": "inhibition at 1 µM", "value": 2.5, "unit": "%"}]}]}
